Source: the supplement of paper PMC10307832

Tests used:
Assay in all cases: relative viability (nuclei count vs DMSO), 5 days (fraction); higher = more cells survive
AGI-6780 = compound: O=C(Nc1cccc(C(F)(F)F)c1)Nc1cc(S(=O)(=O)NC2CC2)ccc1-c1ccsc1 [AGI-6780]
Procedure, shortened: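 On vehicle-anchored 1536-well plates, lung cancer cell lines held overnight at 37 °C were pinned with five library-drug doses (not always all listed) spaced by √10. With no medium change over 5 days, they were then fixed, permeabilised and Hoechst-stained in one step and imaged at 4×. MetaXpress counted nuclei, and viability is the median across plates of treated-well over vehicle-well nuclei. Acceptance needed control CV below 25% and at least one doubling.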

AGI-6780 + Olaparib = compound: O=C(Nc1cccc(C(F)(F)F)c1)Nc1cc(S(=O)(=O)NC2CC2)ccc1-c1ccsc1 [AGI-6780] + O=C(c1cc(Cc2n[nH]c(=O)c3ccccc23)ccc1F)N1CCN(C(=O)C2CC2)CC1 [Olaparib] (partner 8 µM)
Procedure, shortened: (§1)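 Dosing by pin tool came one day after lung cancer cell lines were seeded in 1536-well plates, using either one drug or a fixed anchor-drug dose plus five library-drug doses (not always all listed) in √10 steps. After 5 days, nuclei were counted on 4× images. Relative viability is treated-well nuclei count divided by vehicle-well nuclei count, and values are medians of duplicate plates.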

AGI-6780 + Phenformin = compound: O=C(Nc1cccc(C(F)(F)F)c1)Nc1cc(S(=O)(=O)NC2CC2)ccc1-c1ccsc1 [AGI-6780] + N=C(N)NC(=N)NCCc1ccccc1 [Phenformin] (partner 250 µM)
Procedure, shortened: as §1

AGI-6780 + Trametinib = compound: O=C(Nc1cccc(C(F)(F)F)c1)Nc1cc(S(=O)(=O)NC2CC2)ccc1-c1ccsc1 [AGI-6780] + CC(=O)Nc1cccc(-n2c(=O)n(C3CC3)c(=O)c3c(Nc4ccc(I)cc4F)n(C)c(=O)c(C)c32)c1 [Trametinib] (partner 0.02 µM)
Procedure, shortened: as §1

Row | Cell Line | relative viability (AGI-6780; 0.08 µM) | relative viability (AGI-6780; 0.253 µM) | relative viability (AGI-6780; 0.8 µM) | relative viability (AGI-6780; 2.53 µM) | relative viability (AGI-6780; 8 µM) | relative viability (AGI-6780 + Olaparib; first compound 0.08 µM) | relative viability (AGI-6780 + Olaparib; first compound 0.253 µM) | relative viability (AGI-6780 + Olaparib; first compound 0.8 µM) | relative viability (AGI-6780 + Olaparib; first compound 2.53 µM) | relative viability (AGI-6780 + Olaparib; first compound 8 µM) | relative viability (AGI-6780 + Phenformin; first compound 0.08 µM) | relative viability (AGI-6780 + Phenformin; first compound 0.253 µM) | relative viability (AGI-6780 + Phenformin; first compound 0.8 µM) | relative viability (AGI-6780 + Phenformin; first compound 2.53 µM) | relative viability (AGI-6780 + Phenformin; first compound 8 µM) | relative viability (AGI-6780 + Trametinib; first compound 0.08 µM) | relative viability (AGI-6780 + Trametinib; first compound 0.253 µM) | relative viability (AGI-6780 + Trametinib; first compound 0.8 µM) | relative viability (AGI-6780 + Trametinib; first compound 2.53 µM) | relative viability (AGI-6780 + Trametinib; first compound 8 µM)
1 | NCI-H838 | 0.984 | 0.996 | 0.995 | 0.83 | 0.957 | 0.844 | 0.771 | 0.836 | 0.712 | 0.735 | 0.644 | 0.637 | 0.643 | 0.516 | 0.631 | 0.505 | 0.517 | 0.481 | 0.474 | 0.531
2 | HCC-44 | 0.955 | 1.01 | 0.995 | 1.04 | 0.959 | 1.03 | 0.989 | 0.98 | 0.979 | 1.02 | 0.182 | 0.202 | 0.354 | 0.175 | 0.257 | 1.08 | 0.993 | 1.1 | 0.994 | 1.07
3 | IA-LM | 0.921 | 0.954 | 1.15 | 1.02 | 1.04 | 1.05 | 0.763 | 1 | 0.869 | 0.927 | – | – | – | – | – | – | – | – | – | –
4 | NCI-H1734 | 0.945 | 1.07 | 1 | 0.692 | 1.06 | 0.722 | 0.633 | 0.654 | 0.492 | 0.574 | 0.395 | 0.427 | 0.45 | 0.305 | 0.377 | 0.74 | 0.646 | 0.63 | 0.474 | 0.758
5 | NCI-H1944 | 1.02 | 0.975 | 1.02 | – | 1.06 | 0.464 | 0.412 | 0.448 | – | 0.395 | 0.212 | 0.215 | 0.213 | – | 0.217 | 0.458 | 0.417 | 0.463 | – | 0.425
6 | CAL-12T | 0.962 | 1.02 | 1.18 | 1.03 | 1.07 | 0.712 | 0.662 | 0.648 | 0.667 | 0.78 | 0.61 | 0.579 | 0.626 | 0.632 | 0.566 | 0.307 | 0.425 | 0.306 | 0.309 | 0.321
7 | LXF-289 | 0.994 | 1.01 | 1.02 | 1.13 | 0.984 | 1.07 | 1.02 | 1.08 | 1.06 | 1.03 | 0.516 | 0.518 | 0.538 | 0.529 | 0.541 | 0.722 | 0.683 | 0.657 | 0.74 | 0.683
8 | NCI-H661 | 1 | 1 | 1.08 | 0.876 | 0.947 | 0.782 | 0.754 | 0.768 | 0.719 | 0.726 | 0.284 | 0.344 | 0.27 | 0.261 | 0.252 | 0.671 | 0.61 | 0.558 | 0.542 | 0.62
9 | A-427 | 0.994 | 0.919 | 1.1 | 0.815 | 1.04 | – | 0.712 | 0.738 | 0.649 | 0.732 | 0.326 | 0.294 | 0.359 | 0.315 | 0.338 | – | 0.7 | 0.797 | 0.559 | 0.725
10 | COR-L23 | 1.05 | 1.12 | 0.949 | 1.06 | 1.01 | 0.349 | 0.385 | 0.274 | 0.32 | 0.387 | 0.457 | 0.489 | 0.424 | 0.408 | 0.506 | 0.601 | 0.536 | 0.529 | 0.379 | 0.568
11 | NCI-H460 | 0.987 | 0.99 | 0.998 | 0.977 | 0.992 | 0.413 | 0.444 | 0.487 | 0.291 | 0.447 | 0.529 | 0.527 | 0.568 | 0.585 | 0.524 | 0.286 | 0.149 | 0.117 | 0.1 | 0.167
12 | NCI-H2228 | 0.972 | 1.08 | 0.913 | 0.846 | 1.15 | 0.686 | 0.769 | 0.591 | 0.41 | 0.736 | 0.341 | 0.278 | 0.31 | 0.347 | 0.393 | 0.447 | 0.508 | 0.505 | 0.307 | 0.607
13 | EKVX | 0.986 | 1.03 | 0.938 | 0.799 | 0.969 | 0.894 | 0.811 | 0.935 | 0.763 | 0.863 | 0.23 | 0.245 | 0.252 | 0.25 | 0.251 | 0.32 | 0.383 | 0.392 | 0.386 | 0.312
14 | NCI-H1648 | 0.735 | 0.999 | 0.983 | 0.942 | 1.08 | 0.89 | 0.807 | 0.783 | 0.497 | 0.415 | – | – | – | – | – | 0.47 | 0.53 | 0.377 | 0.409 | 0.433
15 | ABC-1 | 0.799 | 1.06 | 1.08 | 0.851 | 0.901 | – | 0.965 | 0.888 | 0.779 | 0.792 | 0.218 | 0.263 | 0.238 | 0.263 | 0.197 | – | – | – | – | –
16 | A549 | 0.992 | 0.992 | 1.08 | 0.745 | 0.992 | 0.32 | 0.298 | 0.337 | 0.302 | 0.377 | 0.153 | 0.177 | 0.25 | 0.133 | 0.175 | – | – | – | – | –
17 | NCI-H1299 | 1 | 0.98 | 0.955 | 1.04 | 1.01 | 0.982 | 0.964 | 0.948 | 0.908 | 0.961 | – | – | – | – | – | – | – | – | – | –
18 | Calu-6 | 1.03 | 1.01 | 1.07 | 0.993 | 1.03 | 0.598 | 0.601 | 0.584 | 0.559 | 0.543 | – | – | – | – | – | – | – | – | – | –
19 | NCI-H1563 | 0.999 | 1.02 | 0.949 | 0.87 | 0.98 | – | – | – | – | – | 0.671 | 0.666 | 0.66 | 0.643 | 0.672 | – | – | – | – | –
